Reference: patent US20060111284A1, “Method for treating cancer” (priority 2002, published 2006)

Key:
cells = assay: Chemosensitizing by redox clamping agent co-administered with anti-cancer agent (FIG. 2); assay type: cell-based
Description: The present invention further provides a method of reducing the effective dose of an anti-cancer agent necessary to be effective against cancer comprising administering a redox clamping agent in conjunction with an anti-cancer agent. It is preferred that the redox clamping agent is Mesna or DMSA. Redox clamping agents have the ability to maintain cells in a selected redox state. […] Redox clamping agents are useful in enhancing the therapeutic activity of chemotherapeutic agents such as butyrate that are dependent upon the redox state of the cell. Redox clamping agents are further useful in controlling hyperproliferation of cells and conditions associated with abnormal fluctuations in the redox state of cells. In one aspect, this invention provides a method of treating cancerous tumors comprising administering an effective dose of an anti-cancer agent in conjunction with a redox clamping agent, wherein the redox clamping agent acts as a chemoenhancer or a chemosensitizer. […] The administration of Mesna in conjunction with an anti-cancer agent may be as separate compounds or in a composition formulated and titrated to a dose and in a concentration that would achieve the optimal therapeutic dose of the anti-cancer agent providing a higher tumor cell kill with a lower dose of the anti-cancer agent than the typical therapeutic dose administered to a patient. […]

H4 Rat Hepatoma cells = assay: Hydrogen peroxide stress in H4 Rat Hepatoma cells, antioxidant levels; assay type: cell-based; settings: 100 uM hydrogen peroxide for two hours, medium replaced, determined after 24 hours
Description: To further exemplify the redox clamping properties of Mesna, stress was induced in H4 Rat Hepatoma cells by treatment with 100 uM hydrogen peroxide for two hours and then the medium was removed and replaced with an anti-cancer agent. The cellular viability, as well as glutathione and metallothionein levels were determined after 24 hours in culture. […] The inhibition of stress induced upswing in antioxidant levels is characteristic of redox clamping agents.
(§1) In all of the experiments associated with the investigation of Mesna as a redox clamping agent, as a stand-alone anticancer agent as well as a chemosensitizer, the cell culture medium used was Swim's S-77 medium containing 12 uM cystine, instead of conventional levels of this amino acid (i.e., 50 uM). All other components of the medium were maintained at conventional concentrations. […] The ability of cystine to supply cells with cysteine, which then function as a precursor amino acid for glutathione synthesis, is thought to be responsible for the abnormally high basal levels of glutathione in cultured tumor cell lines.

human tumor cell lines = assay: Growth inhibition of human tumor cell lines in culture; assay type: cell-based
Description: The present invention provides a method of treating lymphoma, ovarian cancer, colorectal cancer, or gastric cancer comprising administering an effective amount of Mesna to a patient with lymphoma, ovarian cancer, colorectal cancer or gastric cancer. Mesna inhibits the growth of several human tumor cell lines in culture, and there are no strict relationships between the histopathological origin of the cell lines and the sensitivity of the cell lines to Mesna. […] It is further preferred that the patient be administered Mesna for a seven to ten day period. The doses may be cycled. The actual dose will be dependent on the size, type and location of the tumor as well as the overall status of the patient. It is preferred that high concentrations of Mesna be administered intravenously to achieve clamping initially, with further administration of oral doses to maintain the clamped state.
Cancer cell lines were growth inhibited when Mesna was administered on several consecutive days. Mesna has shown good activity in preventing the urotoxicity of oxazaphosphorine compound.
as §1

[1] = even in very high dose, 1000 mg/kg; cited from earlier work
[2] = within a few minutes after administration; cited from earlier work
human LNCaP cells = assay: Two-step arsenic then Mesna treatment, apoptosis and glutathione in LNCaP cells; assay type: cell-based
Description: Human LNCaP cells, treated with 100 uM arsenic for 2 hours then washed and re-fed with normal medium, develop an elevation in cellular glutathione levels over a 24-hour period. Since exogenous antioxidants are known to be potent inhibitors of apoptotic mechanism, it is believed that internally-produced antioxidants such as glutathione function in a similar manner. […] Although Mesna increases apoptosis alone, the low concentrations of Mesna utilized in this two-step treatment protocol increased apoptosis minimally i.e., to 11 percent from a background of 3 to 5 percent in untreated cells.
as §1

[3] = test system: metastatic and/or relapsed tumors refractory to conventional therapy; assay: Clinical study of oral Mesna as single agent in refractory cancer patients; assay type: in vivo, human
Description: From December 1996 to March 1998 a study was performed on 14 ambulatory patients with metastatic and/or relapsed tumors refractory to conventional therapy. Eligibility criteria included histologically-confirmed advanced cancer, patients age was greater than 18 years, with a life expectancy no less than two months. The patients had not undergone major surgery within 2 weeks, or radiotherapy and/or chemotherapy within one month of the study. […] Exclusion criteria included active uncontrolled infection, pregnancy, lactation and any other co-existing medical problems severe enough to prevent full compliance with the study. Objectively measurable disease in the patients was required. All patients gave informed written consent before treatment. 600 mg/m^2 of Mesna was given by oral route four times a day, masked in orange juice for 10 consecutive days. Cycles were repeated every 15 days. No simultaneous chemotherapy and or radiotherapy and no other supportive care was given. The main objective of the study was to determine the anti-tumoral activity and toxicity of Mesna for heavily and or refractory pretreated cancer patients. […] The patients were all previously treated with between two and four different chemotherapy regimens. Mesna was administered as a single agent to all of the patients in the study. The toxic effects of Mesna and number of nodes were assessed during the first cycle of Mesna administration. […] For colorectal cancer a greater than 50% reduction of nodular lesions metastasized to liver was registered, during the second schedule of therapy. For gastric cancer a greater than 50% reduction of a subcutaneous nodule was measured during the second course of Mesna treatment.

[4] = 100 uM arsenic 2 hours, washed, then medium containing 100 uM Mesna

**Q.** Which results are given for CCCC(=O)O [Butyrate]?
**A.** concentration of butyrate that induces apoptosis (cells; butyrate alone): greater than 3 mM; concentration of butyrate giving an effective kill (cells; in the presence of a redox clamping agent): ≥ 0.5 mM

**Q.** Which “stress-induced upswings in antioxidant levels (glutathione, metallothionein)” value (H4 Rat Hepatoma cells) does the source give for O=C(O)[C@@H](S)[C@@H](S)C(=O)O [DMSA] here?
**A.** oppose stress-induced upswings in antioxidant levels

**Q.** Which “interference with the growth inhibitory activity of Mesna” value (human tumor cell lines) does the source give for O=S(=O)([O-])CCSSCCS(=O)(=O)[O-].[Na+].[Na+] [Dimesna, Disodium-2,2′-dithiobisethane sulfonate] here?
**A.** did not interfere

**Q.** Which “pharmacological and toxicological character” value [1] does the source give for O=S(=O)([O-])CCS.[Na+] [Mesna, Sodium-2-mercaptoethane sulphonate] here?
**A.** relatively inert

**Q.** And the “stress-induced upswings in antioxidant levels (glutathione, metallothionein)” value (H4 Rat Hepatoma cells)?
**A.** oppose stress-induced upswings in antioxidant levels

**Q.** And the “fraction of administered dose transformed into Mesna disulphide” value [2]?
**A.** more than 90%

**Q.** What about the “elevation in glutathione levels” value (human LNCaP cells; [4]) of the same compound?
**A.** dramatically diminished

**Q.** And the “fraction of apoptotic cells compared to arsenic alone” value (human LNCaP cells; [4])?
**A.** increased more than two-fold

**Q.** What about the apoptosis (human LNCaP cells; Mesna alone at the low concentration of the two-step protocol, background 3 to 5 percent in untreated cells) of the same compound?
**A.** 11%

**Q.** And the “reduction of a subcutaneous nodule, gastric cancer” value ([3]; 600 mg/m^2 oral four times a day, 10 days, second course)?
**A.** greater than 50%

**Q.** What about the “reduction of nodular lesions metastasized to liver, colorectal cancer” value ([3]; 600 mg/m^2 oral four times a day, 10 days, second schedule of therapy) of the same compound?
**A.** greater than 50%

**Q.** What about the objective response ([3]; lung cancer, soft tissue sarcoma, skin metastases of unknown origin, bladder cancer, melanoma, cancer of the cervix) of the same compound?
**A.** No objective responses

**Q.** What about the “clinical response, ovarian cancer” value ([3]; two patients, 600 mg/m^2 oral four times a day, 10 days, second and third course) of the same compound?
**A.** reduced ascites and pain

**Q.** And the “incorporation of 3H-thymidine, proline and uridine” value (human tumor cell lines)?
**A.** inhibited

**Q.** What about the “growth of human tumor cell lines in culture” value (human tumor cell lines; lymphoma, ovarian, colorectal, gastric cancer lines, administered on several consecutive days) of the same compound?
**A.** inhibits growth

**Q.** Which “apoptosis of the cells” value (human LNCaP cells; 100 uM arsenic for 2 hours, washed, re-fed with normal medium) does the source give for [AsH3] [arsenic] here?
**A.** 28%
